According to patent US7138361B2, “Herbicidal heterocycles” (E. I. du Pont de Nemours and Company, priority 2000, dated 2006):

Key:
Assay type in all cases: in vivo
[1] = test system: Surinam grass (Brachiaria decumbens); assay: Test C postemergence
Outline: (§1)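 Each compound was dissolved in a non-phytotoxic solvent system containing a surfactant and sprayed either on freshly planted seeds (preemergence) or on young plants, 2 to 18 cm high (postemergence). Ratings after 12 to 14 greenhouse days ran from 0, no effect, to 100, complete control.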

[2] = test system: bermudagrass (Cynodon dactylon); assay: Test C postemergence
Outline: as §1

[3] = test system: chickweed (Stellaria media); assay: Test C postemergence; conditions: Rate 125 g/ha, scale 0 to 100, 0 no effect, 100 complete control
Outline: as §1

[4] = test system: cocklebur (Xanthium strumarium); assay: Test C postemergence
Outline: as §1

[5] = test system: common ragweed (Ambrosia elatior); assay: Test C postemergence
Outline: as §1

[6] = test system: corn (Zea mays); assay: Test C postemergence
Outline: as §1

[7] = test system: crabgrass (Digitaria sanguinalis); assay: Test C postemergence
Outline: as §1

[8] = test system: giant foxtail (Setaria faberii); assay: Test C postemergence
Outline: as §1

[9] = test system: goosegrass (Eleusine indica); assay: Test C postemergence
Outline: as §1

[10] = test system: johnsongrass (Sorghum halepense); assay: Test C postemergence
Outline: as §1

[11] = test system: kochia (Kochia scoparia); assay: Test C postemergence
Outline: as §1

[12] = test system: lambsquarters (Chenopodium album); assay: Test C postemergence
Outline: as §1

[13] = test system: morningglory (Ipomoea hederacea); assay: Test C postemergence
Outline: as §1

[14] = test system: pigweed (Amaranthus retroflexus); assay: Test C postemergence
Outline: as §1

[15] = test system: soybean (Glycine max); assay: Test C postemergence
Outline: as §1

[16] = test system: velvetleaf (Abutilon theophrasti); assay: Test C postemergence
Outline: as §1

[17] = test system: woolly cupgrass (Eriochloa villosa); assay: Test C postemergence
Outline: as §1

[18] = test system: yellow nutsedge (Cyperus esculentus); assay: Test C postemergence
Outline: as §1

[19] = test system: Surinam grass (Brachiaria decumbens); assay: Test C preemergence
Outline: as §1

[20] = test system: corn (Zea mays); assay: Test C preemergence
Outline: as §1

[21] = test system: kochia (Kochia scoparia); assay: Test C preemergence
Outline: as §1

[22] = test system: morningglory (Ipomoea hederacea); assay: Test C preemergence
Outline: as §1

[23] = test system: Sunflower; assay: Test C preemergence; conditions: Rate 500 g/ha, visual evaluation after 12 to 14 days
[24] = Rate 125 g/ha, scale 0 to 100, 0 no effect, 100 complete control
[25] = Rate 250 g/ha, scale 0 to 100 (0 no effect, 100 complete control)
[26] = Rate 500 g/ha, scale 0 to 100 (0 no effect, 100 complete control)
[27] = preemergence, Rate 62 g/ha, scale 0 to 100
[28] = preemergence, Rate 500 g/ha, visual evaluation after 12 to 14 days
[29] = preemergence, Rate 250 g/ha, scale 0 to 100, 0 no effect, 100 complete control

`CCC(C)c1ccn(C2CCN(c3ccc(Br)c(OC)c3)C2=O)n1` (centres unmarked) [Compound 142] was tested, and the “Plant response rating, Surinam grass” value ([1]; Rate 62 g/ha, scale 0 to 100) was 20, the “Plant response rating, Surinam grass” value [1, 24] was 30 and the “Plant response rating, Surinam grass” value [1, 25] was 30. The “Plant response rating, Surinam grass” value [1, 26] was 30, the “Plant response rating, Bermudagrass” value ([2]; Rate 62 g/ha, scale 0 to 100) was 30 and the “Plant response rating, Bermudagrass” value [2, 24] was 40. For the same compound, the “Plant response rating, Bermudagrass” value [2, 25] was 60, the “Plant response rating, Bermudagrass” value [2, 26] was 80 and the “Plant response rating, Chickweed” value [3] was 100. For the same compound, the “Plant response rating, Cocklebur” value ([4]; Rate 62 g/ha, scale 0 to 100) was 30, the “Plant response rating, Cocklebur” value [4, 25] was 90 and the “Plant response rating, Cocklebur” value [4, 26] was 90. For the same compound, the “Plant response rating, Ragweed, Common” value ([5]; Rate 62 g/ha, scale 0 to 100) was 50, the “Plant response rating, Ragweed, Common” value [5, 25] was 90 and the “Plant response rating, Ragweed, Common” value [5, 26] was 100. For the same compound, the “Plant response rating, Corn” value ([6]; Rate 62 g/ha, scale 0 to 100) was 0, the “Plant response rating, Corn” value [6, 25] was 0 and the “Plant response rating, Corn” value [6, 26] was 20. The “Plant response rating, Corn” value ([6]; scale 0 to 100) was 0, the “Plant response rating, Crabgrass” value ([7]; Rate 62 g/ha, scale 0 to 100) was 40 and the “Plant response rating, Crabgrass” value [7, 25] was 70. The “Plant response rating, Crabgrass” value [7, 26] was 70, the “Plant response rating, Foxtail, Giant” value ([8]; Rate 62 g/ha, scale 0 to 100) was 90 and the “Plant response rating, Foxtail, Giant” value [8, 25] was 90. The “Plant response rating, Foxtail, Giant” value [8, 26] was 90, the “Plant response rating, Goosegrass” value ([9]; Rate 62 g/ha, scale 0 to 100) was 30 and the “Plant response rating, Goosegrass” value [9, 25] was 50. For the same compound, the “Plant response rating, Goosegrass” value [9, 26] was 70, the “Plant response rating, Johnsongrass” value ([10]; Rate 62 g/ha, scale 0 to 100) was 20 and the “Plant response rating, Johnsongrass” value [10, 25] was 30. The “Plant response rating, Johnsongrass” value [10, 26] was 30, the “Plant response rating, Johnsongrass” value ([10]; rate not given, scale 0 to 100) was 30 and the “Plant response rating, Kochia” value ([11]; Rate 62 g/ha, scale 0 to 100) was 40. For the same compound, the “Plant response rating, Kochia” value [11, 25] was 90, the “Plant response rating, Kochia” value [11, 26] was 90 and the “Plant response rating, Lambsquarters” value ([12]; Rate 62 g/ha, scale 0 to 100) was 80. For the same compound, the “Plant response rating, Lambsquarters” value [12, 25] was 100, the “Plant response rating, Lambsquarters” value [12, 26] was 100 and the “Plant response rating, Morningglory” value ([13]; Rate 62 g/ha, scale 0 to 100) was 20. The “Plant response rating, Morningglory” value [13, 25] was 100, the “Plant response rating, Morningglory” value [13, 26] was 100 and the “Plant response rating, Pigweed” value ([14]; Rate 62 g/ha, scale 0 to 100) was 80. For the same compound, the “Plant response rating, Pigweed” value [14, 25] was 90, the “Plant response rating, Pigweed” value [14, 26] was 90 and the “Plant response rating, Soybean” value ([15]; Rate 62 g/ha, scale 0 to 100) was 60. For the same compound, the “Plant response rating, Soybean” value [15, 25] was 90, the “Plant response rating, Soybean” value [15, 26] was 90 and the “Plant response rating, Velvetleaf” value ([16]; Rate 62 g/ha, scale 0 to 100) was 50. For the same compound, the “Plant response rating, Velvetleaf” value [16, 25] was 80, the “Plant response rating, Velvetleaf” value [16, 26] was 80 and the “Plant response rating, Velvetleaf” value ([16]; scale 0 to 100) was 70. The “Plant response rating, Cupgrass, Woolly” value ([17]; Rate 62 g/ha, scale 0 to 100) was 40, the “Plant response rating, Cupgrass, Woolly” value [17, 25] was 50 and the “Plant response rating, Cupgrass, Woolly” value [17, 26] was 70. For the same compound, the “Plant response rating, Nutsedge” value ([18]; Rate 62 g/ha, scale 0 to 100) was 0, the “Plant response rating, Nutsedge” value [18, 25] was 0 and the “Plant response rating, Nutsedge” value [18, 26] was 20. The “Plant response rating, Surinam grass” value [19, 24] was 0, the “Plant response rating, Surinam grass” value [19, 27] was 0 and the “Plant response rating (0 to 100), Surinam grass” value [19, 28] was 100. The “Plant response rating, Surinam grass” value [19, 29] was 50, the “Plant response rating, Corn” value [20, 24] was 0 and the “Plant response rating, Corn” value [20, 27] was 0. For the same compound, the “Plant response rating (0 to 100), Corn” value [20, 28] was 10, the “Plant response rating, Corn” value [20, 29] was 0 and the “Plant response rating, Kochia” value [21, 24] was 100. For the same compound, the “Plant response rating, Kochia” value [21, 27] was 100, the “Plant response rating (0 to 100), Kochia” value [21, 28] was 100 and the “Plant response rating, Kochia” value [21, 29] was 100. For the same compound, the “Plant response rating, Morningglory” value [22, 24] was 100, the “Plant response rating, Morningglory” value [22, 27] was 90 and the “Plant response rating (0 to 100), Morningglory” value [22, 28] was 100. For the same compound, the “Plant response rating, Morningglory” value [22, 29] was 100 and the “Plant response rating (0 to 100), Sunflower” value [23] was 80.
